The values below come from PubChem BioAssay AID651581 (Sanford-Burnham Center for Chemical Genomics, 2012).

Calls of active or inactive are those of the source. No rule for the calls is given here.

Test [1] addresses Endothelial PAS domain-containing protein 1 (Homo sapiens) (UniProt Q99814). As to the kind of experiment: potency against HIF reporters across cell lines – luminescence, panel, selectivity assay for HIF-2a inhibitor project, dose response (AID 651581). As to conditions: human cell HIF reporter.
Test [2] deals with Hypoxia-inducible factor 1-alpha (Homo sapiens) (UniProt Q16665). The description is as above. Conditions: human cell HIF reporter, HIF-1a.
Hypoxia-inducible factor 1-alpha (Homo sapiens), sequence (Q16665 whole entry, looked up): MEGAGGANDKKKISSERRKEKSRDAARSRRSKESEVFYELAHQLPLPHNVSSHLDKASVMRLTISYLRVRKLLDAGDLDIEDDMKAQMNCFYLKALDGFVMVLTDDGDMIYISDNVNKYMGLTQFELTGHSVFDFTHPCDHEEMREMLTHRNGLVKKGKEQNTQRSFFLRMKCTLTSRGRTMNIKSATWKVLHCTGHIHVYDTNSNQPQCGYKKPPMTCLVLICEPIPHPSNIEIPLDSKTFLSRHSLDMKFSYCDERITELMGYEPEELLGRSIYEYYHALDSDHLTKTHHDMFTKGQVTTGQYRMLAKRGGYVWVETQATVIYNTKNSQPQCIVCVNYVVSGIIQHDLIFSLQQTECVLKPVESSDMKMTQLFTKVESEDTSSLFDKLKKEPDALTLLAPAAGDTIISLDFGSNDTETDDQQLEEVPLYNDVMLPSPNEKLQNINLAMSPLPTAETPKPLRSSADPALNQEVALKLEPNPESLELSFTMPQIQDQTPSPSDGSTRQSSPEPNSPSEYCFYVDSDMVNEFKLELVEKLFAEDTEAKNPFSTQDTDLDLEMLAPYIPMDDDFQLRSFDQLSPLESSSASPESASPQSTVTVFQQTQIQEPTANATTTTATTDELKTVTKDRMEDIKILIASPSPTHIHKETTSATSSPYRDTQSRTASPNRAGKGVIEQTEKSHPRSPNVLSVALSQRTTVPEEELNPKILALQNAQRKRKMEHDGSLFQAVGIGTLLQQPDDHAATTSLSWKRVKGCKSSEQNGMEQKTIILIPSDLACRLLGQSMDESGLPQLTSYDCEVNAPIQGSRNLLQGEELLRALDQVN

Consider `CC(=O)Nc1ccc(OCC(=O)c2ccc(C)cc2C)cc1`, for which the 50% inhibitory concentration (IC50) (commonly the concentration that gives 50% inhibition) in test [1] (HIF-2a PANC, mean of runs) was 4.2 µM; in test [1] (HIF-2a PANC, run 1), 3.04 µM; in test [1] (HIF-2a PANC, run 2), 5.37 µM; in test [1] (HIF-2a, mean of runs), 2.47 µM; in test [1] (HIF-2a, run 1), 2.75 µM; in test [1] (HIF-2a, run 2), 2.19 µM. The IC50 in test [2] (mean of runs) is 46.2 µM; in test [2] (run 1) it was 4.55 µM; in test [2] (run 2), 87.9 µM.
Consider `N#CCC(=O)N/N=C\c1cccc(OC/C=C/c2ccccc2)c1`, for which the IC50 is greater than 99 µM in test [1] (HIF-2a PANC, run 1); less than 30 µM in test [1] (HIF-2a PANC, run 2); less than 30 µM in test [1] (HIF-2a, run 1); 8.63 µM in test [1] (HIF-2a, run 2); greater than 99 µM in test [2] (run 1); less than 30 µM in test [2] (run 2).
As to `Cc1c(CCC(=O)N[C@@H](CC(C)C)C(=O)O)c(=O)oc2cc3oc4c(c3cc12)CCCC4`, the IC50 in test [1] (HIF-2a PANC, mean of runs) was 2.77 µM; in test [1] (HIF-2a PANC, run 1), 2.58 µM; in test [1] (HIF-2a PANC, run 2), 2.96 µM; in test [1] (HIF-2a, mean of runs), 1.61 µM; in test [1] (HIF-2a, run 1) it was 1.61 µM; in test [1] (HIF-2a, run 2), 1.61 µM. Moreover, the results for the 50% inhibitory concentration (IC50) in test [2] (run 1) and in test [2] (run 2) were 2.65 µM and 4.05 µM, respectively. In test [2] (mean of runs), the IC50 entry is “inactive”.
Consider `Cc1nnnn1/C(=C\c1ccccc1)C(=O)OCC(=O)Nc1cccc(S(=O)(=O)N(C)C)c1`, for which the IC50 was greater than 99 µM in test [1] (HIF-2a PANC, run 1); 24.2 µM in test [1] (HIF-2a PANC, run 2); 8.61 µM in test [1] (HIF-2a, mean of runs); 8.32 µM in test [1] (HIF-2a, run 1); 8.9 µM in test [1] (HIF-2a, run 2); 13.5 µM in test [2] (run 1). In test [2] (run 2), this compound returned an IC50 of 18.5 µM. Also, the IC50 result in test [2] (mean of runs) is “inactive”.
Regarding `COc1ccc(C(=O)/C=C/C(=O)N(CC(=O)NCCC(C)C)Cc2cccs2)c(O)c1`, the IC50 was greater than 99 µM in test [1] (HIF-2a PANC, run 1); 63.8 µM in test [1] (HIF-2a PANC, run 2); 3.88 µM in test [1] (HIF-2a, mean of runs); 4.21 µM in test [1] (HIF-2a, run 1); 3.55 µM in test [1] (HIF-2a, run 2); 12.8 µM in test [2] (mean of runs). For the same compound, the half-inhibitory concentration (IC50) stood at 9.47 µM in test [2] (run 1) and 16 µM in test [2] (run 2).
In the case of `C=C1C(=O)OC2CC3(C)OC3C3OC3C3=CC(OC3=O)C12` (stereo not drawn), the IC50 was greater than 99 µM in test [1] (HIF-2a PANC, run 1); 59.7 µM in test [1] (HIF-2a PANC, run 2); 11.4 µM in test [1] (HIF-2a, run 1); 10.3 µM in test [1] (HIF-2a, run 2); 36.4 µM in test [2] (mean of runs); 33.9 µM in test [2] (run 1). Also, in test [2] (run 2), the 50% inhibitory concentration (IC50) amounted to 38.9 µM. For the same compound, the IC50 result in test [1] (HIF-2a, mean of runs) is “inactive”.
